Data from PubChem BioAssay AID1963451 (Molecular Pharmacology Branch, DTP, NCI, 2024).

Test system: 521955-158-R6-J3-PDC complex spheroid growth, % test/control
Experiment: Anticancer human tumor 521955-158-R6-J3-PDC patient-derived pancreatic carcinoma cell line growth inhibition [Asc]
Conditions: for IC50: curve of first compound; for viability, T/C: stronger effect = lower value; active = viability on the fitted dose curve at most 10% of control; inactive = the rest
In short: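 Tumor cells were grown as multicellular spheroids with stromal HUVEC and mesenchymal stem cells and treated singly or in combination. Concentrations fell in half-log steps from the clinical Cmax, or from 10 microM where none was known.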

[1] = second compound 0.0316 µM, first compound 0.0316 µM
[2] = second compound 0.0316 µM, first compound 0.1 µM
[3] = second compound 0.0316 µM, first compound 0.316 µM
[4] = second compound 0.0316 µM, first compound 1 µM
[5] = second compound 0.1 µM, first compound 0.0316 µM
[6] = second compound 0.1 µM, first compound 0.1 µM
[7] = second compound 0.1 µM, first compound 0.316 µM
[8] = second compound 0.1 µM, first compound 1 µM
[9] = second compound 0.316 µM, first compound 0.0316 µM
[10] = second compound 0.316 µM, first compound 0.1 µM
[11] = second compound 0.316 µM, first compound 0.316 µM
[12] = second compound 0.316 µM, first compound 1 µM
[13] = second compound 1 µM, first compound 0.0316 µM
[14] = second compound 1 µM, first compound 0.1 µM
[15] = second compound 1 µM, first compound 0.316 µM
[16] = second compound 1 µM, first compound 1 µM
[17] = second compound 3.16 µM, first compound 0.0316 µM
[18] = second compound 3.16 µM, first compound 0.1 µM
[19] = second compound 3.16 µM, first compound 0.316 µM
[20] = second compound 3.16 µM, first compound 1 µM
[21] = second compound 10 µM, first compound 0.0316 µM
[22] = second compound 10 µM, first compound 0.1 µM
[23] = second compound 10 µM, first compound 0.316 µM
[24] = second compound 10 µM, first compound 1 µM
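Also: spheroids exposed to compounds for 7 days.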
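For viability, T/C in this document: 100% = DMSO vehicle control wells.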

C#Cc1c(F)ccc2cc(O)cc(-c3ncc4c(N5CC6CCC(C5)N6)nc(OCC56CCCN5CC(F)C6)nc4c3F)c12 (stereo unspecified) + Cc1c(S(C)(=O)=O)c(-c2cc(F)cc(N3CCN(c4ccc(NS(=O)(=O)c5ccc(NC(CCN6CCC(C(=O)OCCCP(=O)(O)O)CC6)CSc6ccccc6)c(S(=O)(=O)C(F)(F)F)c5)cc4)CC3)c2)c(-c2ccc(Cl)cc2)n1C(C)C
< 0.0316 µM: IC50 (second compound 0.0316 µM) | IC50 (second compound 0.1 µM) | IC50 (second compound 0.316 µM) | IC50 (second compound 1 µM) | IC50 (second compound 3.16 µM) | IC50 (second compound 10 µM)
inactive: viability, T/C [1] 49.8% | viability, T/C [2] 44.9% | viability, T/C [3] 23.1% | viability, T/C [4] 24% | viability, T/C (second compound 0.0316 µM, first compound 3.16 µM) 18.4% | viability, T/C (second compound 0.0316 µM, first compound 10 µM) 15.9% | viability, T/C [5] 46.2% | viability, T/C [6] 31.1% | viability, T/C [7] 23.3% | viability, T/C [8] 18.4% | viability, T/C (second compound 0.1 µM, first compound 3.16 µM) 17.8% | viability, T/C (second compound 0.1 µM, first compound 10 µM) 17.1% | viability, T/C [9] 31.6% | viability, T/C [10] 34.9% | viability, T/C [11] 15.9% | viability, T/C [12] 15.6% | viability, T/C (second compound 0.316 µM, first compound 3.16 µM) 11.6% | viability, T/C [13] 16.1% | viability, T/C [14] 15.3% | viability, T/C [15] 11.9% | viability, T/C [17] 12.6% | viability, T/C [18] 11.4%
active: viability, T/C (second compound 0.316 µM, first compound 10 µM) 9.78% | viability, T/C [16] 9.24% | viability, T/C (second compound 1 µM, first compound 3.16 µM) 7.76% | viability, T/C (second compound 1 µM, first compound 10 µM) 7.16% | viability, T/C [19] 7.77% | viability, T/C [20] 7.76% | viability, T/C (second compound 3.16 µM, first compound 3.16 µM) 6.82% | viability, T/C (second compound 3.16 µM, first compound 10 µM) 3.79% | viability, T/C [21] 8.21% | viability, T/C [22] 6.93% | viability, T/C [23] 5% | viability, T/C [24] 5.16% | viability, T/C (second compound 10 µM, first compound 3.16 µM) 3.49% | viability, T/C (second compound 10 µM, first compound 10 µM) 3.88%

CNC(C)C(=O)NC1CN(S(=O)(=O)c2cccc(S(=O)(=O)N3CCC4CCC(C(=O)NC(c5ccccc5)c5ccccc5)N4C(=O)C(NC(=O)C(C)NC)C3)c2)CCC2CCC(C(=O)NC(c3ccccc3)c3ccccc3)N2C1=O (stereo unspecified) + Cc1c(S(C)(=O)=O)c(-c2cc(F)cc(N3CCN(c4ccc(NS(=O)(=O)c5ccc(NC(CCN6CCC(C(=O)OCCCP(=O)(O)O)CC6)CSc6ccccc6)c(S(=O)(=O)C(F)(F)F)c5)cc4)CC3)c2)c(-c2ccc(Cl)cc2)n1C(C)C
> 1 µM: IC50 (second compound 0.0316 µM) | IC50 (second compound 0.1 µM)
active: viability, T/C (second compound 10 µM, first compound 0.01 µM) 12% | viability, T/C [21] 8.73% | viability, T/C [22] 9.27% | viability, T/C [23] 10.4% | viability, T/C [24] 6.75%
inactive: viability, T/C (second compound 0.0316 µM, first compound 0.00316 µM) 101% | viability, T/C (second compound 0.0316 µM, first compound 0.01 µM) 90.1% | viability, T/C [1] 80.1% | viability, T/C [2] 72.5% | viability, T/C [3] 67.3% | viability, T/C [4] 60.4% | viability, T/C (second compound 0.1 µM, first compound 0.00316 µM) 93.4% | viability, T/C (second compound 0.1 µM, first compound 0.01 µM) 64.7% | viability, T/C [5] 57.1% | viability, T/C [6] 56.4% | viability, T/C [7] 51.4% | viability, T/C [8] 55.4% | viability, T/C (second compound 0.316 µM, first compound 0.00316 µM) 57.3% | viability, T/C (second compound 0.316 µM, first compound 0.01 µM) 38.4% | viability, T/C [9] 42.8% | viability, T/C [10] 39.4% | viability, T/C [11] 35.7% | viability, T/C [12] 35.5% | viability, T/C (second compound 1 µM, first compound 0.00316 µM) 31.6% | viability, T/C (second compound 1 µM, first compound 0.01 µM) 23.8% | viability, T/C [13] 29.6% | viability, T/C [14] 19.9% | viability, T/C [15] 25.4% | viability, T/C [16] 21.1% | viability, T/C (second compound 3.16 µM, first compound 0.00316 µM) 14.6% | viability, T/C (second compound 3.16 µM, first compound 0.01 µM) 13% | viability, T/C [17] 16.9% | viability, T/C [18] 14.1% | viability, T/C [19] 12.3% | viability, T/C [20] 13.3% | viability, T/C (second compound 10 µM, first compound 0.00316 µM) 10.6%
0.00502 µM: IC50 (second compound 0.316 µM)
< 0.00316 µM: IC50 (second compound 1 µM) | IC50 (second compound 3.16 µM) | IC50 (second compound 10 µM)

Cc1nc(N2CCC3(CC2)COC(C)C3N)c(CO)nc1Sc1ccnc(N)c1Cl (stereo unspecified) + Cc1c(S(C)(=O)=O)c(-c2cc(F)cc(N3CCN(c4ccc(NS(=O)(=O)c5ccc(NC(CCN6CCC(C(=O)OCCCP(=O)(O)O)CC6)CSc6ccccc6)c(S(=O)(=O)C(F)(F)F)c5)cc4)CC3)c2)c(-c2ccc(Cl)cc2)n1C(C)C
inactive: viability, T/C (second compound 0.0316 µM, first compound 0.00949 µM) 81.8% | viability, T/C (second compound 0.0316 µM, first compound 0.03 µM) 75% | viability, T/C (second compound 0.0316 µM, first compound 0.0949 µM) 57.6% | viability, T/C (second compound 0.0316 µM, first compound 0.3 µM) 61.2% | viability, T/C (second compound 0.0316 µM, first compound 0.949 µM) 58.6% | viability, T/C (second compound 0.0316 µM, first compound 3 µM) 51.7% | viability, T/C (second compound 0.1 µM, first compound 0.00949 µM) 77.4% | viability, T/C (second compound 0.1 µM, first compound 0.03 µM) 63.2% | viability, T/C (second compound 0.1 µM, first compound 0.0949 µM) 49.1% | viability, T/C (second compound 0.1 µM, first compound 0.3 µM) 54.4% | viability, T/C (second compound 0.1 µM, first compound 0.949 µM) 39.6% | viability, T/C (second compound 0.1 µM, first compound 3 µM) 39.9% | viability, T/C (second compound 0.316 µM, first compound 0.00949 µM) 42.6% | viability, T/C (second compound 0.316 µM, first compound 0.03 µM) 38.7% | viability, T/C (second compound 0.316 µM, first compound 0.0949 µM) 41.9% | viability, T/C (second compound 0.316 µM, first compound 0.3 µM) 29% | viability, T/C (second compound 0.316 µM, first compound 0.949 µM) 31.1% | viability, T/C (second compound 0.316 µM, first compound 3 µM) 22.3% | viability, T/C (second compound 1 µM, first compound 0.00949 µM) 26.3% | viability, T/C (second compound 1 µM, first compound 0.03 µM) 24.8% | viability, T/C (second compound 1 µM, first compound 0.0949 µM) 22.8% | viability, T/C (second compound 1 µM, first compound 0.3 µM) 26% | viability, T/C (second compound 1 µM, first compound 0.949 µM) 15.5% | viability, T/C (second compound 1 µM, first compound 3 µM) 14.1% | viability, T/C (second compound 3.16 µM, first compound 0.00949 µM) 16.7% | viability, T/C (second compound 3.16 µM, first compound 0.03 µM) 19.9% | viability, T/C (second compound 3.16 µM, first compound 0.0949 µM) 12.2% | viability, T/C (second compound 3.16 µM, first compound 0.3 µM) 12.5% | viability, T/C (second compound 3.16 µM, first compound 0.949 µM) 11.6% | viability, T/C (second compound 10 µM, first compound 0.00949 µM) 12.8% | viability, T/C (second compound 10 µM, first compound 0.03 µM) 11.4% | viability, T/C (second compound 10 µM, first compound 0.0949 µM) 12.7%
> 3 µM: IC50 (second compound 0.0316 µM)
active: viability, T/C (second compound 3.16 µM, first compound 3 µM) 8.25% | viability, T/C (second compound 10 µM, first compound 0.3 µM) 7.14% | viability, T/C (second compound 10 µM, first compound 0.949 µM) 8.9% | viability, T/C (second compound 10 µM, first compound 3 µM) 8.72%
0.177 µM: IC50 (second compound 0.1 µM)
< 0.00949 µM: IC50 (second compound 0.316 µM) | IC50 (second compound 1 µM) | IC50 (second compound 3.16 µM) | IC50 (second compound 10 µM)
